Experimental findings from patent US20260258000A1, “THYMIDYLATE SYNTHASE INHIBITORS AND USES THEREOF” (University of Florida Research Foundation, Incorporated, priority 2021, published 2026) are described below.

“Also recorded” adds a separate entry of the source.

In data set [1] the test system is TS protein expression in PANC-1 cells. Briefly: Immunoblot analysis of TS expression in PANC-1 cells. It is filed as cell-based. Particulars: PANC-1 cells treated 72 hours (FIG. 1D). On the procedure: To prepare lysates, 0.5×10^6 PA NC-1 cells were seeded in 100 mm dishes in 10 ml DMEM High glucose and 24 hours later, 5-FU (Sigma) or 19-S were added at the specified concentrations. Cells were harvested after 72 hours and cell pellets were stored at −80° C. For GI50 determination, 3000 MIA PaCa-2 cells. […] After 72 hours, cell viability was assessed by reduction of MTS ((3-4,5-dimethylthiazol-2-yl)-5-(3-carboxymethoxyphenol)-2-(4-sulfophenyl)-2H-tetrazolium) using Cell Titer 96 R Aqueous One Solution Cell Proliferation Assay Kit (Promega), following manufacturer's recommendations. Chemiluminescent output (integration time 1000 ms) was measured on a SpectraMax M3® (Molecular devices). […]
Protein lysates were generated using RIPA buffer (Santa Cruz) for 20 minutes on ice, followed by 15 minutes centrifugation at 13,000 rpm, at 4° C. […] Protein was quantified using Bradford Assay (BioRad) following manufacturer's recommendations, standard curves were generated with bovine serum albumin (Fisher).
20 μg of total protein lysate was loaded per lane of 10% Tris Glycine Gel (Invitrogen). […] Signal was detected using West Pico Plus chemiluminescent substrate (Thermo Scientific) following manufacturer's recommendations. […] For protein level quantification relative to loading control, densitometric analysis was performed by ImageJ software.
Background: In western blotting, separated proteins are transferred to a membrane and probed.

For data set [2], the target named is T1, human thymidylate synthase (hTS) (Homo sapiens, UniProt P04818).
T1 construct: 6xHis (N); made in house; host or cells: E. coli BL21 (DE3)
Briefly: Tritium based TS catalytic activity assay. It is filed as biochemical. The method, then: The catalytic activity of TS was determined by measuring the release of [31] from [5-3H]dUMP (ViTrax, VT122) resulting from the conversion of dUMP to dTMP as previously described12,33. […] Reactions were performed in 50 mM KH2PO4 (Sigma Aldrich, P0662) at pH 7.2 using 2 μg of purified human TS. Reactions were performed in a final volume of 200 μL with 100 mM β-mercaptoethanol (Sigma Aldrich, M7522), 40 μM dUMP (Sigma Aldrich, D3876), 100 μM 5,10-mTHF, and the [5-3H]dUMP tracer (ViTrax, VT122) accounting for 0.06% of the final dUMP concentration in the reaction. […] Reactions were initiated by the addition of the dUMP substrate and 5,10-mTHF cofactor, then incubated at 37° C. for 30 minutes. […] Reactions were terminated by the addition of 100 μL of ice-cold 20% trichloroacetic acid (Sigma Aldrich, T6399), then excess [5-31-]dUMP was removed by the addition of 200 μL of an albumin-coated activated charcoal solution. The albumin-coated activated charcoal solution was prepared by mixing 10 g of acid-washed activated dextran coated charcoal (Sigma Aldrich, C6241) with 2.5 g of bovine albumin (Sigma Aldrich, A1933) in 100 mL of H2O. The suspension was incubated at room temperature for 30 minutes and then centrifuged for 30 minutes at 10,000×g. […] For all experiments, positive control reactions were performed with no drug representing 100% TS activity, and negative control reactions were performed with no TS enzyme or no 5,10-mTHF substrate representing 0% TS activity. All assays were performed in biological duplicate and technical duplicate. Results were analyzed using GraphPad Prism 8.

The nature of data set [3]: Maximum tolerated dose (MTD) study. The format is in vivo. From the text:
After 3 treatment cycles, animals rested (no treatment) for one more week before euthanasia. Body weight and physical status of all mice were closely monitored. Tissues were collected and fixed in alcoholic formalin to test for toxicity.

In data set [4] the test system is PANC-1 cells. Put plainly: Cell viability (MTS) assay, PANC-1. It is filed as cell-based. The conditions noted are these: Homo sapiens; PANC-1, 72 hour drug incubation (FIG. 1C). The method, then:
To prepare lysates, 0.5×10^6 PA NC-1 cells were seeded in 100 mm dishes in 10 ml DMEM High glucose and 24 hours later, 5-FU (Sigma) or 19-S were added at the specified concentrations. Cells were harvested after 72 hours and cell pellets were stored at −80° C. For GI50 determination, 3000 MIA PaCa-2 cells. […] After 72 hours, cell viability was assessed by reduction of MTS ((3-4,5-dimethylthiazol-2-yl)-5-(3-carboxymethoxyphenol)-2-(4-sulfophenyl)-2H-tetrazolium) using Cell Titer 96 R Aqueous One Solution Cell Proliferation Assay Kit (Promega), following manufacturer's recommendations. Chemiluminescent output (integration time 1000 ms) was measured on a SpectraMax M3® (Molecular devices). Data were normalized to max/minutes and plotted in GraphPad Prism for GI50 determination. Chemical synthesis details, including characterization of each compound, can be found in the supporting information document associated with this publication.

T1 sequence (P04818 whole entry): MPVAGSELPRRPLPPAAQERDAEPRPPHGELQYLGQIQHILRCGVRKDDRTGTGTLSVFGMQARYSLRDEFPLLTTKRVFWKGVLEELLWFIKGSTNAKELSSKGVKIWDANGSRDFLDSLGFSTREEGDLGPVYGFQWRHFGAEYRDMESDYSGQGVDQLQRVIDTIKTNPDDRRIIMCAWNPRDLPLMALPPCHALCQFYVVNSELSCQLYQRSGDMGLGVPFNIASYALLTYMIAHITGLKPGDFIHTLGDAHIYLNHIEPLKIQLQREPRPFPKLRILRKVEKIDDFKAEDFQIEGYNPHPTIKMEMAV

A word on the MTD: it is the largest dose that counted as tolerated. The term GI50 denotes the concentration giving 50% growth inhibition. For `CCc1nc(N)nc(N)c1-c1ccc(N(C)Cc2ccccc2)c([N+](=O)[O-])c1` [Compound 19-S], the “TS protein expression (steady-state TS levels)” value in data set [1] is recorded as “no increase in steady-state TS levels”. The “inhibition of TS catalytic activity, 19-S series library screen” value in data set [2] (250 uM (FIG. 4A)) was “inhibited TS activity”. In addition, the “TS inhibition at decreasing drug concentrations” value in data set [2] (compared with Pem and MTX controls (FIG. 4C)) is “greater TS inhibition than both MTX and Pen; also recorded: both strong TS and DHFR inhibition”. For the same molecule, the “TS activity (conversion of dUMP)” value in data set [2] (drug 250 μM, 10 μg/mL bacterially expressed TS protein (FIG. 1B)) was “comparable TS inhibition as seen with the 5-FU metabolite FdUrd”. Moreover, the mortality result was “found dead after 12th, 13th and 14th dose” in data set [3] (50 mg/kg IP, n=3 (FIG. 10B)); 2 were found dead after 1st dose and one animal reached endpoint in data set [3] (50 mg/kg IP, n=3 (FIG. 10C)); “found dead after 1st and 3rd dose” in data set [3] (100 mg/kg IP, n=2 (FIG. 10B)); “found dead after 1st dose” in data set [3] (100 mg/kg IP, n=3 (FIG. 10C)). In addition, the maximum tolerated dose (MTD) at 3 treatment cycles of 5 consecutive daily doses in data set [3] (mouse, in vivo, IP, NSG mice, read-out: maximum tolerated dosage (MTD)) was 25 mg/kg. The molecule further displayed a GI50 in data set [4] of 8.35 µM.
